According to ChEMBL document CHEMBL1145504, “Sensitivity of monkey B virus (Cercopithecine herpesvirus 1) to antiviral drugs: role of thymidine kinase in antiviral activities of substrate analogs and acyclonucleosides” (Antimicrob Agents Chemother, 2007):
Where “and” joins values, the source holds several entries; their conditions need not be identical. Equal entries are not always repeated. Calls of active or inactive are those of the source. The rule behind the calls is not given here.

What was measured:
[1] = target: T1, Thymidine kinase (Macacine herpesvirus 1) (UniProt A3RLP8); test: Activity of Herpes B virus recombinant thymidine kinase at 100 uM; conditions: Macacine alphaherpesvirus 1
T1 sequence (whole entry): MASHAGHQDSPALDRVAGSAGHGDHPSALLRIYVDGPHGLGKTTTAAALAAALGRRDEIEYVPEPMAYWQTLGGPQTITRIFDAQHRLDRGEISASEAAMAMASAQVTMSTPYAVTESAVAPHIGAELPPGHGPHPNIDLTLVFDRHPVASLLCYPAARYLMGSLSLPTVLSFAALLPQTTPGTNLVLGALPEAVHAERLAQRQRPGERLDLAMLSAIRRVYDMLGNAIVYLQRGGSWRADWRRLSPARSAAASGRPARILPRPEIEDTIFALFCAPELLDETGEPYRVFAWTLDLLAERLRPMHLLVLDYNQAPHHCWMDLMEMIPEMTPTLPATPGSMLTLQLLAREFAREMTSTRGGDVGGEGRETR

Thymidine kinase = target: T2, Thymidine kinase (Macacine herpesvirus 1, UniProt A3RLP8)
T2 sequence (A3RLP8 whole entry): T1 sequence (whole entry)

[2] = Cytotoxicity against african green monkey Vero cells after 2 days; format: cell-based; conditions: chlorocebus sabaeus
[3] = target: T1, Thymidine kinase (Macacine herpesvirus 1); conditions: Macacine alphaherpesvirus 1; 100 uM
[4] = test system: Macacine alphaherpesvirus 1; test: microbe, parasite or virus in culture; format: functional, organism-based; conditions: Macacine alphaherpesvirus 1, Vero
Human alphaherpesvirus 1 = test: microbe, parasite or virus in culture; format: functional, organism-based; conditions: Human alphaherpesvirus 1, F, Vero
[5] = test system: Macacine alphaherpesvirus 1; test: microbe, parasite or virus in culture; format: functional, organism-based; conditions: Macacine alphaherpesvirus 1, Vero; remark: listed apart in the source
[6] = test system: Macacine alphaherpesvirus 1; test: microbe, parasite or virus in culture; format: functional, organism-based; conditions: Macacine alphaherpesvirus 1, Vero; remark: listed apart in the source
[7] = target: T1, Thymidine kinase (Macacine herpesvirus 1); test: Activity of Herpes B virus recombinant thymidine kinase at 1 mM; conditions: Macacine alphaherpesvirus 1
[8] = substrate: O=c1[nH]c(Nc2ccccc2)nc2c1ncn2CCCCO; test: (§1) Activity of Herpes B virus recombinant thymidine kinase; conditions: Macacine alphaherpesvirus 1
[9] = substrate: Cc1cn([C@H]2C[C@H](O)[C@@H](CO)O2)c(=O)[nH]c1=O; test: as §1; conditions: Macacine alphaherpesvirus 1
[10] = substrate: Cc1cn([C@H]2C[C@H](O)[C@@H](CO)O2)c(=O)[nH]c1=O; conditions: Human alphaherpesvirus 1

Molecule: Nc1nc2c(ncn2CCCCO)c(=O)[nH]1
- Activity [1]: 94%
- IC50 (Thymidine kinase): 177 µM

Molecule: Cc1cn([C@H]2C[C@H](O)[C@@H](CO)O2)c(=O)[nH]c1=O (stereo in doubt; form 2)
- Activity [1]: 100%

Molecule: Cc1cn([C@H]2C[C@H](O)[C@@H](CO)O2)c(=O)[nH]c1=O (stereo in doubt; form 1)
- Activity [1]: 130%

Molecule: Nc1nc(O)c2ncn(COC(CO)CO)c2n1 [GANCICLOVIR]
- IC50 (Thymidine kinase): 800 µM
- CC50 at 48 h [2]: 666 µM

Molecule: O=c1ccn([C@@H]2O[C@H](CO)[C@H](O)[C@@H]2O)c(=O)[nH]1
- Activity [3]: inactive

Molecule: Nc1ncnc2c1ncn2[C@@H]1O[C@H](CO)[C@@H](O)[C@@H]1O [VIDARABINE]
- EC50 [4]: 35 µM
- EC50 (Human alphaherpesvirus 1): 7 µM
- Activity [3]: inactive
- EC50 [5]: 28 µM
- CC50 at 48 h [2]: 38 µM

Molecule: O=c1[nH]c(=O)n([C@H]2C[C@H](O)[C@@H](CO)O2)cc1C(F)(F)F [TRIFLURIDINE]
- EC50 [4]: 3.4 µM
- EC50 (Human alphaherpesvirus 1): < 1.7 µM
- Activity [1]: 55%
- IC50 (Thymidine kinase): 2 µM
- EC50 [5]: 1.7 µM
- CC50 at 48 h [2]: 50.6 µM

Molecule: O=c1[nH]c(Nc2cccc(C(F)(F)F)c2)nc2nc[nH]c12
- IC50 (Thymidine kinase): 3.5 µM

Molecule: O=C(O)P(=O)(O)O [FOSCARNET]
- EC50 [4]: 250 µM
- EC50 (Human alphaherpesvirus 1): 250 µM
- EC50 [5]: > 500 µM
- CC50 at 48 h [2]: > 1 µM

Molecule: Nc1nc(O)c2ncn(CCC(CO)CO)c2n1 [PENCICLOVIR]
- EC50 [4]: 25.3 µM
- EC50 [6]: 17.3 µM
- EC50 (Human alphaherpesvirus 1): 4.7 µM
- Activity [1]: 72%
- EC50 [5]: 17 µM

Molecule: CN(C)CCCCn1cnc2c(O)nc(Nc3ccccc3)nc21
- IC50 (Thymidine kinase): 1.2 µM

Molecule: O=c1[nH]c(Nc2ccccc2)nc2c1ncn2CCCCO
- EC50 [4]: > 330 µM
- EC50 (Human alphaherpesvirus 1): 330 µM
- Activity [1]: 200%
- EC50 [5]: > 330 µM
- CC50 at 48 h [2]: > 660 µM

Molecule: CCc1cn([C@@H]2C[C@H](O)[C@@H](CO)O2)c(=O)[nH]c1=O
- IC50 (Thymidine kinase): 52 µM

Molecule: Nc1nc2c(ncn2COCCO)c(=O)[nH]1 [ACYCLOVIR]
- EC50 [4]: 118 µM
- EC50 [6]: 47.5 µM
- EC50 (Human alphaherpesvirus 1): 1.4 µM
- Activity [7]: inactive
- Activity [1]: inactive
- EC50 [5]: 112 µM
- CC50 at 48 h [2]: > 890 µM

Molecule: Cc1cc(=O)[nH]c(=O)n1[C@@H]1O[C@H](CO)[C@@H](O)[C@H]1O
- Activity [3]: inactive

Molecule: Nc1nc2c(ncn2COC(CO)CO)c(=O)[nH]1 [GANCICLOVIR]
- EC50 [4]: 23.5 µM
- EC50 [6]: 19.2 µM
- EC50 (Human alphaherpesvirus 1): 0.7 µM
- Activity [7]: inactive
- Activity [1]: inactive
- EC50 [5]: 14.5 µM

Molecule: CCCc1cn([C@H]2C[C@H](O)[C@@H](CO)O2)c(=O)[nH]c1=O
- Activity [1]: 31%
- IC50 (Thymidine kinase): 4.2 µM

Molecule: Nc1nc2c(ncn2CCC(CO)CO)c(=O)[nH]1 [PENCICLOVIR]
- IC50 (Thymidine kinase): 84.4 µM
- CC50 at 48 h [2]: > 790 µM

Molecule: O=c1[nH]c(=O)n(C2C[C@H](O)[C@@H](CO)O2)cc1/C=C/Br (single isomer, unassigned)
- Activity [7]: inactive
- Activity [1]: inactive

Molecule: O=c1[nH]c(=O)n([C@H]2C[C@H](O)[C@@H](CO)O2)cc1/C=C/Br [BRIVUDINE]
- EC50 [4]: > 300 µM
- EC50 (Human alphaherpesvirus 1): 0.12 µM
- Activity [7]: inactive
- Activity [1]: inactive
- EC50 [5]: > 300 µM
- CC50 at 48 h [2]: > 600 µM

Molecule: O=c1[nH]c(=O)n([C@H]2C[C@H](O)[C@@H](CO)O2)cc1I [IDOXURIDINE]
- EC50 [4]: 8.5 µM
- EC50 (Human alphaherpesvirus 1): 2.8 µM
- Activity [1]: 58%
- EC50 [5]: 11.2 µM
- CC50 at 48 h [2]: 6.8 µM

Molecule: Nc1ccn(C[C@@H](CO)OCP(=O)(O)O)c(=O)n1 [CIDOFOVIR]
- EC50 [4]: 21.6 µM
- EC50 (Human alphaherpesvirus 1): 14.4 µM
- Activity [7]: inactive
- Activity [1]: inactive
- IC50 (Thymidine kinase): 900 µM
- EC50 [5]: 28.9 µM
- CC50 at 48 h [2]: > 720 µM

Molecule: O=c1[nH]c(=O)n(C2C[C@H](O)[C@@H](CO)O2)cc1I (single isomer, unassigned)
- Activity [1]: 94%

Molecule: CCc1cn([C@H]2C[C@H](O)[C@@H](CO)O2)c(=O)[nH]c1=O [EDOXUDINE]
- EC50 [4]: 48 µM
- EC50 [6]: 13.3 µM
- EC50 (Human alphaherpesvirus 1): 2.1 µM
- Activity [1]: 82%
- IC50 (Thymidine kinase): 0.15 µM
- EC50 [5]: 37.4 µM
- CC50 at 48 h [2]: > 780 µM

B1: Thymidine kinase (Macacine herpesvirus 1), A3RLP8 (protein)
chain: T1 sequence (whole entry)
- Km [8]: 7.4 µM
- Vmax (nmol/hr/microg) [8]: 3.9
- Km [9]: 0.7 µM and 0.65 µM
- Vmax (nmol/hr/microg) [9]: 0.2 and 0.15

B2: Thymidine kinase (Human alphaherpesvirus 1), Q9QNF7 (protein)
chain: MASYPCHQHASAFDQAARSRGHSNRRTALRPRRQQEATEVRLEQKMPTLLRVYIDGPHGMGKTTTTQLLVALGSRDDIVYVPEPMTYWQVLGASETIANIYTTQHRLDQGEISAGDAAVVMTSAQITMGMPYAVTDAVLAPHIGGEAGSSHAPPPALTLIFDRHPIAALLCYPAARYLMGSMTPQAVLAFVALIPPTLPGTNIVLGALPEDRHIDRLAKRQRPGERLDLAMLAAIRRVYGLLANTVRYLQGGGSWREDWGQLSGTAVPPQGAEPQSNAGPRPHIGDTLFTLFRAPELLAPNGDLYNVFAWALDVLAKRLRPMHVFILDYDQSPAGCRDALLQLTSGMVQTHVTTPGSIPTICDLARTFAREMGEAN
- Km [10]: 1 µM
